Assay results from article PMC8869984, “Multifunctional Silver(I) Complexes with Metronidazole Drug Reveal Antimicrobial Properties and Antitumor Activity against Human Hepatoma and Colorectal Adenocarcinoma Cells” (Cancers, 2022).

Columns and labels:
[1] = test system: Balb/c 3T3 cells; assay: TPC assay (total protein content), 72 h exposure; assay type: cell-based, murine; conditions: Balb/c 3T3, TPC, mean ± SD, n = 3
Method: (§1) The human hepatoma (HepG2) and colorectal adenocarcinoma (Caco-2) cells were purchased from the American Type Culture Collection: ATCC HB-8065 and ATCC HTB-37, respectively. These cells were cultured in Minimum Essential Medium Eagle (MEME) (ATCC). The murine fibroblasts cell line (Balb/c 3T3 clone A31) (gift from the Department of Swine Diseases of the National Veterinary Research Institute in Pulawy) was cultured in Dulbecco’s Modified Eagle Medium (DMEM) (ATCC). The media were supplemented with 10% BCS (Balb/c 3T3), 10% FBS (HepG2), 20% FBS (Caco-2), 1% L-glutamine, 1% antibiotic solution. The cells were maintained in 75 cm^2 cell culture flasks (NUNC) in a humidified incubator at 37 °C in an atmosphere of 5% CO2. The medium was refreshed every two or three days, and the cells were trypsinized by 0.25% trypsin–0.02% EDTA after reaching 70–80% confluence. Single cell suspensions were prepared and adjusted to a density of 2 × 10^5 cell/mL^−1 (HepG2), 1 × 10^5 cell/mL^−1 (Caco-2) and 5 × 10^4 cell/mL^−1 (Balb/c 3T3). The cell suspension was transferred to 96-well plates (100 µL/well) and incubated for 24 h before the exposure to the studied compounds. Stock solutions of ligands and metal complexes were prepared in sterile water and diluted with culture medium to obtain a concentration range from 0.1 to 10 µM. The final concentration of sterile water was 0.1% in the medium. […] As a negative control, cultured cells were grown in the absence of studied compounds. Each concentration was tested in six replicates in three independent experiments. Cytotoxicity was assessed after 72 h of exposure of the cells to compounds. The medium was not changed during the incubation time.
This assay is based upon staining the total cellular protein (proliferation). […] The absorbance was measured at 595 nm in a microplate reader Synergy HTX multi-mode reader (BioTek® Instruments Inc., Winooski, VT, USA) using a blank as a reference. Cytotoxicity was expressed as a percentage of the negative control. […]

[2] = test system: HepG2 cells; assay: LDH leakage assay (membrane integrity), 72 h exposure; assay type: cell-based, human; conditions: mean ± SD, n = 3
Method: as §1
(§2) The integrity of the plasma membrane was assessed through the test of lactate dehydrogenase (LDH) release, which was monitored using the commercially available Cytotoxicity Detection Kit (LDH) (Roche Diagnostics, Warsaw, Poland). […] The absorbance was measured at 492 nm in a microplate reader Synergy HTX multi-mode reader (BioTek® Instruments Inc., Winooski, VT, USA) using a blank as a reference. […]

[3] = test system: Balb/c 3T3 cells; assay: MTT assay (mitochondrial activity), 72 h exposure; assay type: cell-based, murine; conditions: Balb/c 3T3, MTT, mean ± SD, n = 3
Method: as §1
The metabolic activity of living cells was assessed by the measurement of the activity of dehydrogenases. […] The plate was shaken for 15 min at room temperature and transferred to a microplate reader Synergy HTX multi-mode reader (BioTek® Instruments Inc., Winooski, VT, USA) to measure the absorbance at 570 nm, using a blank as a reference. Cytotoxicity was expressed as a percentage of the negative control. […]

[4] = test system: Balb/c 3T3 cells; assay: NRU assay (lysosomal activity), 72 h exposure; assay type: cell-based, murine; conditions: Balb/c 3T3, NRU, mean ± SD, n = 3
Method: as §1
This method is based on staining living cells with neutral red, which readily diffuses through the plasma membrane and accumulates in lysosomes. […] After 10 min of shaking, the absorbance of the dissolved NR was measured using a Synergy HTX multi-mode reader (BioTek® Instruments Inc., Winooski, VT, USA) at 540 nm using a blank as a reference. Cytotoxicity was expressed as a percentage of the negative control. […]

[5] = test system: Balb/c 3T3 cells; assay: LDH leakage assay (membrane integrity), 72 h exposure; assay type: cell-based, murine; conditions: Balb/c 3T3, LDH, mean ± SD, n = 3
Method: as §1, §2

SMILES: N.N.[Cl][Pt][Cl] [Cisplatin, cisplatin]
- IC50 [1]: > 10 µM
- IC50 [2]: < 0.1 µM
- IC50 [3]: > 10 µM
- IC50 [4]: > 10 µM
- IC50 [5]: > 10 µM
